Results reported in the NIST ThermoML archive (doi:10.1016/j.jct.2012.06.028).
Numbers after ± are expanded uncertainties.

Assays:
[1] = refractive index (Na D-line) (dimensionless); conditions: 298.15 K; 101.33 kPa; Liquid; Standard Abbe refractometry
[2] = 298.15 K; 101.33 kPa; Liquid; Vibrating tube method

Compound | refractive index [1] | mass density [2] [kg/m3]
CCCCCC [hexane] | 1.37241 ± 0.0007 | 655.2 ± 0.26
CCCC[n+]1ccn(C)c1.O=S(=O)([N-]S(=O)(=O)C(F)(F)F)C(F)(F)F | 1.42672 ± 0.0007 | 1436.1 ± 0.62
CCCC[n+]1cccc(C)c1.O=S(=O)([N-]S(=O)(=O)C(F)(F)F)C(F)(F)F | 1.44595 ± 0.0007 | 1414.76 ± 0.6
CCO [ethanol] | 1.35936 ± 0.00068 | 785.44 ± 0.13
CCCC[n+]1cccc(C)c1.O=S(=O)([O-])C(F)(F)F [1-butyl-3-methylpyridinium trifluoromethanesulfonate] | 1.46138 ± 0.0007 | 1279.77 ± 0.47
CCn1cc[n+](C)c1.O=S(=O)([N-]S(=O)(=O)C(F)(F)F)C(F)(F)F | 1.42307 ± 0.0007 | 1518.74 ± 0.7
